Data on 7 compounds can be found in PubChem BioAssay (NCI).

“And” between values parts separate entries of the source, which are not always exact repeats. Identical values can stand only once.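 48-hour exposure; five concentrations; linearly interpolated endpoints. GI50: concentration for 50% inhibition of growth. TGI: concentration producing complete growth inhibition.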

Common to all, as to assay: inhibition of tumour cell growth, NCI panel, 48 h
Assay [1] relates to A549 NSCLC.
Assay [2] relates to BT-549 breast.
The test system of assay [3] is HS 578T breast.
Assay [4] deals with MCF7 breast.
The subject of assay [5] is NCI-H522 lung.
In assay [6] the test system is OVCAR-8 ovarian.
The subject of assay [7] is PC-3 prostate.
Assay [8] deals with SF-295 CNS.
The subject of assay [9] is TK-10 renal.
The subject of assay [10] is UO-31 renal.

For the compound `COc1cc(/C=C/C(=O)c2cccc(-n3cc(-c4ccccc4)[nH]c3=O)c2)cc(OC)c1OC`, the GI50 in assay [1] was 4.03 µM; in [2] it was 1.93 µM; in assay [3], 3.41 µM; in assay [4], 0.31 µM; in assay [5] it was 0.958 µM; in assay [6], 1.62 µM. Also, the GI50 in assay [7] is 3.26 µM; in assay [8], 1.9 µM; in assay [9] it was 3.02 µM; in [10], 1.51 µM. Moreover, the TGI is more than 100 µM in [1]; 5.47 µM in assay [2]; 27.1 µM in assay [3]; 1.12 µM in assay [4]; 2.52 µM in [5]; 16.4 µM in [6]. The TGI is 20.7 µM in assay [7], 4.41 µM in [8], 9.35 µM in [9] and 4.56 µM in assay [10].
Consider `CC(C)=CCc1cc2c(cc1O)C1=C(C(=O)C3=C(NCCS3(=O)=O)C1=O)C(C=C(C)C)O2` (configuration not stated), for which the GI50 in assay [1] was more than 16.7 µM; in assay [2] it was 14.1 µM; in assay [3] it was 4.85 µM; in [4], 2.86 µM; in assay [5], 2.93 µM; in [6] it was 4.75 µM. Further, the GI50 is 5.58 µM in assay [7], more than 16.7 µM in [8], more than 16.7 µM in assay [9] and 5.57 µM in assay [10]. For the same compound, the TGI in assay [1] is more than 16.7 µM; in assay [2], more than 16.7 µM; in assay [3] it was more than 16.7 µM; in [4], 7.84 µM; in assay [5] it was 9.09 µM; in assay [6] it was more than 16.7 µM. The TGI in [7], in assay [8], in [9] and in assay [10] was more than 16.7 µM throughout.
Turning to `C=CCc1cccc(C=O)c1O`, the GI50 in assay [1] was more than 100 µM; in [2] it was 10.4 µM; in [3], more than 100 µM; in [4] it was 7.9 µM; in [5], more than 100 µM; in assay [6] it was 39.5 µM. Also, the GI50 in [7] was 5.86 µM; in assay [8] it was more than 100 µM; in assay [9], more than 100 µM; in assay [10], 70.1 µM. Also, the TGI in assay [1], in [2], in [3], in assay [4], in assay [5] and in assay [6] was more than 100 µM in each case. In addition, the TGI in assay [7], in [8], in assay [9] and in assay [10] was more than 100 µM throughout.
Consider `O=S(=O)(NCCCNc1cc(-c2cn(-c3ccccc3)nc2-c2cccc(O)c2)ccn1)c1ccc(C(F)(F)F)cc1`, for which the GI50 was 2.14 µM in assay [1]; 1.39 µM in assay [2]; 1.46 µM in [3]; 2.11 µM in assay [4]; 2.28 µM in assay [5]; 2.47 µM in [6]. Besides, the GI50 in [7] is 1.93 µM; in assay [8], 1.79 µM; in assay [9] it was 3.32 µM; in assay [10], 2.04 µM. The TGI in assay [1] came to 7.45 µM; in assay [2], 2.8 µM; in [3], 5.77 µM; in assay [4], 6.58 µM; in assay [5], 4.83 µM; in assay [6] it was 7.66 µM. In addition, the TGI in [7] was determined as 4.57 µM; in assay [8], 3.64 µM; in [9], 9.84 µM; in assay [10], 5.74 µM.
As for `COC(=O)c1c2c(c(C)[n+]([O-])c1C)C(=O)C(NCc1ccc(OC)cc1)=CC2=O`, the GI50 in [1] was 2.9 µM; in [2], 2.96 µM; in assay [3], 3.81 µM; in [4] it was 1.41 µM; in assay [5], 1.95 µM; in assay [6], 2.78 µM. Moreover, the GI50 in assay [7] is 2.31 µM; in assay [8], 1.79 µM; in assay [9], 4.62 µM; in assay [10] it was 2.48 µM. The TGI is 10.2 µM in assay [1]; 13.3 µM in assay [2]; 36.6 µM in assay [3]; 3.35 µM in assay [4]; 4.73 µM in [5]; more than 100 µM in [6]. Moreover, the TGI in assay [7] amounted to 10.4 µM; in assay [8], 5.09 µM; in assay [9] it was 20.1 µM; in [10], 10 µM.
Regarding `COc1cc2c(c3oc(-c4ccc(O)cc4)c(O)c(=O)c13)CCC(C)(C)O2`, the GI50 in assay [1] is 0.27 µM; in [2] it was 0.279 µM; in [3], 0.0903 µM; in assay [4] it was 0.381 µM; in assay [5], 0.0776 µM; in [6] it was 0.292 µM. Further, the GI50 is 1.17 µM in assay [7], 0.0426 µM in assay [8], 0.5 µM in assay [9] and 0.0281 µM in assay [10]. Moreover, the TGI in assay [1] was 0.729 µM; in [2], 0.836 µM; in assay [4] it was more than 100 µM; in assay [5] it was 0.232 µM; in assay [6], 0.856 µM; in assay [7], more than 100 µM. Besides, the figures for the TGI in [8], in assay [9] and in assay [10] were 0.194 µM, more than 100 µM and 0.075 µM, respectively.
As to `COc1ccc(-c2csc3c2-n2cccc2C3=O)cc1`, the GI50 is 0.0664 µM in [1]; 0.0492 µM in [2]; 0.211 µM and 0.0224 µM in assay [3]; 0.0945 µM in assay [4]; 0.00234 µM and 0.0218 µM in [5]; 0.068 µM in [6]. The GI50 in [7] is 0.0317 µM; in assay [8] it was 0.0476 µM; in [10], 0.049 µM. In addition, the TGI in [1] was more than 100 µM; in assay [3] it was 0.095 µM; in [4], more than 41.6 µM; in [5], 0.00998 µM and 0.0802 µM; in assay [6] it was more than 100 µM; in [7], more than 52.1 µM. The TGI in [8] was more than 75.5 µM; in assay [9], more than 100 µM; in [10] it was more than 44.2 µM.
